Assay results from patent US11236088B2, “Heterocyclic compounds and their application in medicine” (KIND PHARMACEUTICAL, priority 2017, dated 2022).

System: MCF-7 cells
Assay: Inhibitory effect on the growth of MCF-7 cells (CellTiter-Glo, 10 days)
Assay type: cell-based
Settings: Homo sapiens, MCF7, 240 h, 10 days incubation, CellTiter-Glo chemiluminescence
Description: Assay 2: Inhibitory effect of compounds of the present invention on the growth of MCF-7 cells by a cell drug inhibition experiment
1. Experimental Materials
1) Reagents: DMEM high glucose medium (Lonza #12-604F), FBS (BI #04-00F1ACS), antibiotics (Thermofisher #15070063), bovine insulin (Western reagent #11070-73-8), trypsin (Thermofisher #25200-056), CellTiter-Glo reagent (Promega #G7571)
2) Instruments: American MD-M5 microplate reader 5;
2. Experimental Procedures:
1) 100 μl of MCF-7 cells was added to a medium in a white opaque 96-well plate at a density of 5000 cells/ml in which the medium is DMEM high-glucose medium supplemented with 10% FBS. The cells were cultured in a 5% CO2 cell incubator at 37° C. for 24 hours.
2) Different concentrations of corresponding compounds were added to the 96-well plate for incubating MCF-7 cells. The cells were incubated for 10 days in a 5% CO2 cell incubator.
3) To each well of MCF-7 cells, 100 μl of CellTiter-Glo reagent was added and then set aside at room temperature for 10 minutes. The chemiluminescence signal was read using an MD-M5 microplate reader, and the data was processed using GraphPad Prism to calculate IC50 value.

Row | Compound | IC50 [nM]
1 | CCCCCN1CC(Sc2cc(F)c([C@@H]3c4ccc5[nH]ncc5c4CN(C)[C@H]3CC3CC3)c(F)c2)C1 [Example 29, (6S, 7S)-7-cyclopropylmethyl-6-(2,6-difluoro-4-((1-pentylazetidin-3-yl)thio)phenyl)-8-methyl-6,7,8,9-tetrahydro-3H-pyrazolo [3,4-h]isoquinoline] | > 1000
2 | CC(C)C[C@H]1[C@H](c2c(F)cc(OC3CN(C=O)C3)cc2F)c2ccc3[nH]ncc3c2CN1C [Example 30, 3-(3,5-difluoro-4-((6S, 7S)-7-isobutyl-8-methyl-6,7,8,9-tetrahydro-3H-pyrazolo [3,4-h]isoquinolin-6-yl)phenoxy) azetidin-1-aldehyde] | ≤ 1
3 | CCCC(=O)N1CC(Oc2cc(F)c([C@@H]3c4ccc5[nH]ncc5c4CN(C)[C@H]3CC(C)C)c(F)c2)C1 [Example 33, 1-(3-(3,5-difluoro-4-((6S, 7S)-7-isobutyl-8-methyl-6,7,8,9-tetrahydro-3H-pyrazolo [3,4-h]isoquinolin-6-yl)phenoxy)azetidin-1-yl) butan-1-one] | 10 to 1000
4 | C[C@]12CC[C@@H]3c4ccc(O)cc4C[C@@H](CCCCCCCCC[S+]([O-])CCCC(F)(F)C(F)(F)F)[C@H]3[C@@H]1CC[C@@H]2O (stereo partly shown) [Fulvestrant, reference compound] | 10 to 1000

Continued, values first:

Row | IC50 [nM] | Compound
5 | ≤ 1 | CC(=O)N1CC(Oc2cc(F)c([C@@H]3c4ccc5[nH]ncc5c4CN(C)[C@H]3CC(C)C)c(F)c2)C1 [Example 31, 1-(3-(3,5-difluoro-4-((6S, 7S)-7-isobutyl-8-methyl-6,7,8,9-tetrahydro-3H-pyrazolo [3,4-h]isoquinolin-6-yl)phenoxy)azetidin-1-yl) ethan-1-one]
6 | ≤ 1 | CCC(=O)N1CC(Oc2cc(F)c([C@@H]3c4ccc5[nH]ncc5c4CN(C)[C@H]3CC(C)C)c(F)c2)C1 [Example 32, 1-(3-(3,5-difluoro-4-((6S, 7S)-7-isobutyl-8-methyl-6,7,8,9-tetrahydro-3H-pyrazolo [3,4-h]isoquinolin-6-yl)phenoxy)azetidin-1-yl) propan-1-one]
7 | 1 to 10 | CC(C)C[C@H]1[C@H](c2c(F)cc(OC3CN(C(=O)C(C)C)C3)cc2F)c2ccc3[nH]ncc3c2CN1C [Example 34, 1-(3-(3,5-difluoro-4-((6S, 7S)-7-isobutyl-8-methyl-6,7,8,9-tetrahydro-3H-pyrazolo [3,4-h]isoquinolin-6-yl)phenoxy)azetidin-1-yl)-2-methylpropan-1-one]
